Tests used:
Format in all cases: in vivo
Design in all cases: scale not given here
[1] = system: Echinochloa crus-galli (L.) P. Beauv. var. crus-galli; test: Herbicidal effects in upland field foliar treatment (Test Example 3); settings: criteria of Table 138; for herbicidal effects on Echinochloa crus-galli (L.) P. Beauv. var. crus-galli: 1000 g of the active ingredient per hectare, 14th day after the treatment, wettable powder; for herbicidal effect (index) on Echinochloa crus-galli (L.) P. Beauv. var. crus-galli: 1000 g active ingredient per hectare, 14th day after treatment
Outline: (§1)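 Herbicidal activity is rated visually on a fixed scale 14 days after foliar application. Plants raised from seed in upland field soil for two weeks under glass receive a water dilution of a wettable powder at 1000 g a.i. per hectare in 1000 L/ha.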

[2] = system: Abutilon theophrasti medicus; test: as above; settings: criteria of Table 138; for herbicidal effects on Abutilon theophrasti medicus: 1000 g of the active ingredient per hectare, 14th day after the treatment, wettable powder; for herbicidal effect (index) on Abutilon theophrasti medicus: 1000 g active ingredient per hectare, 14th day after treatment
Outline: as §1

Amaranthus viridis L. [3] = test: as above; settings: criteria of Table 138; for herbicidal effects on Amaranthus viridis L.: 1000 g of the active ingredient per hectare, 14th day after the treatment, wettable powder; for herbicidal effect (index) on Amaranthus viridis L.: 1000 g active ingredient per hectare, 14th day after treatment
Outline: as §1

[4] = system: Echinochloa oryzicola Vasing; test: Herbicidal effects in paddy field soil treatment (Test Example 1); settings: for Herbicidal effects index, Echinochloa oryzicola Vasing: paddy field soil treatment, 1000 g of the active ingredient per hectare, wettable powder added dropwise on water surface, 21st day after treatment
Outline: (§2)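 Scoring of herbicidal effect took place 21 days after treatment, using a rating scale, on plants grown in a greenhouse. The test compound, formulated as a wettable powder and diluted with water, had been applied dropwise to the flood water at 1000 g active ingredient per hectare, one day after sowing into puddled paddy soil held under 3 cm of water.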

[5] = system: Scirpus juncoides Roxb. var. ohwianus. T. Koyama; test: as above; settings: for Herbicidal effects index, Scirpus juncoides Roxb. var. ohwianus. T. Koyama: paddy field soil treatment, 1000 g of the active ingredient per hectare, wettable powder added dropwise on water surface, 21st day after treatment
Outline: as §2

[6] = system: Monochoria vaginalis (Burm. f.) Presl var. plantaginea (Roxb.) Solms-Laub.; test: as above; settings: for Herbicidal effects index, Monochoria vaginalis (Burm. f.) Presl var. plantaginea (Roxb.) Solms-Laub.: paddy field soil treatment, 1000 g of the active ingredient per hectare, wettable powder added dropwise on water surface, 21st day after treatment
Outline: as §2

[7] = system: Abutilon theophrasti medicus; test: Herbicidal effects in upland field soil treatment (Test Example 2); settings: 1000 g active ingredient per hectare, 21st day after treatment, criteria of Table 138
Outline: (§3)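 Herbicidal effect was rated visually against set criteria on the 21st day after a pre-emergence soil-surface spray of diluted wettable powder delivering 1000 g active ingredient per hectare (1000 L/ha). Seeds had been sown and covered in upland field soil; plants grew in a greenhouse.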

Amaranthus viridis L. [8] = test: as above; settings: 1000 g active ingredient per hectare, 21st day after treatment, criteria of Table 138
Outline: as §3

[9] = paddy field soil treatment (Test Example 1), criteria of Table 138

Row | SMILES | herbicidal effects on Echinochloa crus-galli (L.) P. Beauv. var. crus-galli [1] | herbicidal effects on Abutilon theophrasti medicus [2] | herbicidal effects on Amaranthus viridis L. (Amaranthus viridis L. [3]) | herbicidal effect (index) on Echinochloa oryzicola Vasing [4, 9] | herbicidal effect (index) on Scirpus juncoides Roxb. var. ohwianus. T. Koyama [5, 9] | herbicidal effect (index) on Monochoria vaginalis (Burm. f.) Presl var. plantaginea (Roxb.) Solms-Laub. [6, 9] | herbicidal effect (index) on Abutilon theophrasti medicus [7] | herbicidal effect (index) on Amaranthus viridis L. (Amaranthus viridis L. [8]) | Herbicidal effects index, Echinochloa oryzicola Vasing [4] | Herbicidal effects index, Scirpus juncoides Roxb. var. ohwianus. T. Koyama [5] | Herbicidal effects index, Monochoria vaginalis (Burm. f.) Presl var. plantaginea (Roxb.) Solms-Laub. [6] | herbicidal effect (index) on Echinochloa crus-galli (L.) P. Beauv. var. crus-galli [1] | herbicidal effect (index) on Abutilon theophrasti medicus [2] | herbicidal effect (index) on Amaranthus viridis L. (Amaranthus viridis L. [3])
1 | O=C1CCCC(O)=C1C(=O)c1cnccn1 [comparative compound A, reference compound] | 0 | 2 | 1 | 2 | 0 | 0 | 1 | 0 |  |  |  |  |  | 
2 | COc1ccc(-n2c(=O)c(C(=O)C3=C(O)C(C)(C)CCC3=O)nc3ccccc32)cc1 [II-63] | 5 | 4 | 5 |  |  |  | 5 | 5 | 5 | 5 | 5 |  |  | 
3 | Cn1c(=O)c(C(=O)C2=C(O)CCCC2=O)nc2ccc(F)cc21 [I-221] |  |  |  |  |  |  | 5 | 5 | 5 | 5 | 5 | 4 | 5 | 5
4 | O=C1CCCC(O)=C1C(=O)c1nc2cccnc2n(-c2ccc(Cl)cc2)c1=O [IV-13] | 5 | 5 | 5 |  |  |  | 5 | 5 | 5 | 5 | 5 |  |  | 
5 | CC(c1ccccc1)n1c(=O)c(C(=O)C2=C(O)CCCC2=O)nc2cccnc21 (stereo not shown) [III-130] | 5 | 5 | 5 |  |  |  | 5 | 5 | 5 | 5 | 5 |  |  | 
6 | COc1ccc(-n2c(=O)c(C(=O)C3=C(O)CCCC3=O)nc3cccc(F)c32)cc1 [II-189] | 5 | 5 | 5 |  |  |  | 5 | 5 | 5 | 5 | 5 |  |  | 
7 | O=C1CCCC(O)=C1C(=O)c1nc2ccccc2n(C2CC2)c1=O [Compound I-14] |  |  |  |  |  |  | 5 | 5 | 4 | 5 | 5 | 4 | 5 | 5
8 | O=C1CCCC(O)=C1C(=O)c1nc2ccccc2n(-c2ccc(Cl)cn2)c1=O [I-177] |  |  |  |  |  |  | 5 | 5 | 5 | 5 | 5 | 5 | 5 | 5
